Data from patent publication US11040937B2, “Amide derivative” (TOHOKU UNIVERSITY, priority 2014, dated 2021).

Tested on: OPN production in A549 cells
Experiment: OPN production in culture supernatant by ELISA, per mg cell protein
Format: cell-based, human
Conditions: for amount of the OPN production vs control group: 2 days, significance level less than 1%
Experimental: Brefelamide (Compound 1) was added to a culture liquid containing cells of human liver cancer-derived cell line HepG2, human non-small cell lung cancer-derived cell line A549, human renal cell carcinoma-derived cell line OUR-10, or human pancreatic cancer-derived cell line QGP-1, and the amount of OPN in the culture supernatant after 2 days was measured using Human Osteopontin Immunoassay kit (R&D systems). The confirmation test was performed by comparison of the OPN amount of Compound 1-treated group with that of DMSO-treated group (control group). In addition, Compounds 6, 19, 26, and 38 which are brefelamide derivatives were added to a culture liquid containing cells of human non-small cell lung cancer-derived cell line A549, and a similar confirmation test to the above-mentioned test was performed.
Compounds 1, 6, 19, 26, and 38 have also a cell growth inhibitory effect. Thus, in order to properly evaluate the inhibitory effect of the compounds on the OPN production, the 1×CCLR solution used in luciferase assay was added to cells remaining in each well after removal of culture supernatant to prepare a cell lysate, and the amount of protein in the cell lysate was measured using BCA Protein Assay Kit (Thermo Scientific). The influence of Compound 1 on the amount of the OPN production was evaluated by comparison of the amount of OPN per milligram of protein.
HepG2 cells or A549 cells were suspended in DMEM medium containing 10% FCS and 1% P/S at 4×10^4 cells/mL to obtain a cell suspension, and the cell suspension was dispensed into each well of a 24-well plate in an amount of 500 μL. In order to perform the test in triplicate, 3 wells were prepared for each control group, and 3 wells were prepared for each test compound-treated group at each concentration. The 24-well Plate was incubated in a CO2 incubator (at 37° C., and 3% CO2) for 24±4 hours.
Compound 1, 6, 19, 26, and 38 which are test compounds were dissolved in DMSO to prepare a 50 mmol/L solution of each compound, and the solutions were stored at −80° C. The solution of Compound 1 was diluted with DMSO to prepare 2.5 mmol/L and 5 mmol/L solutions (FIG. 1), 3.125 mmol/L and 6.25 mmol/L solutions (FIG. 2), 6.25 mmol/L and 12.5 mmol/L solutions (FIG. 3), or 5 mmol/L and 10 mmol/L solutions (FIG. 4). The two solutions of Compound 1 at different concentrations were added in an amount of 2 μL per well to wells in which HepG2, A549, OUR-10, or QGP-1 cells were culture, respectively. Only DMSO was added in an amount of 2 μL to each control well.
Similarly, the 50 mmol/L solution of Compound 6 was stared at −80° C., and the solution was diluted with DMSO to prepare 2.5 mmol/L and 5 mmol/L solutions (FIG. 5). The two solutions of Compound 6 at different concentrations were added in an amount of 2 μL per well to wells in which A549 cells were cultured. Only DMSO was added in an amount of 2 μL to the control well.
Also, the 50 mmol/L solutions of Compounds 19, 26, and 38 were stored at −80° C., and each solution was diluted with DMSO to prepare 3.125 mmol/L and 6.25 mmol/L solutions (FIGS. 8 to 10). The two solutions of Compound 19, 26, or 38 at different concentrations were added in an amount of 2 μL per well to wells in which A549 cells were cultured, respectively. Only DMSO was added in an amount of 2 μL to each control well.
The 24-well plate was shaken to mix the solution in each well, and was then incubated in a CO2 incubator (at 37° C. and 5% CO2) for 48±4 hours. Then, the total amount of the resulting culture supernatant was transferred into a 1.5 mL tube, and D-PBS(−) (500 μL) was added to each well containing cells.
The 24-well plate was gently shaken to remove D-PBS(−), and then 5×CCLR used in luciferase assay was diluted to 5 times with water to prepare 1×CCLR. The prepared 1×CCLR was dispensed into each well in an amount of […]. The 24-well plate was then rocked on a rocking shaker for 15 minutes. […]

[1] = concentration increased from 12.5 μmol/L to 25 μmol/L

| Compound | amount of the OPN production vs control group (12.5 μmol/L) | amount of the OPN production vs control group (25 μmol/L) | OPN production, dependence on concentration [1] | amount of the OPN production vs control group (10 μmol/L) | amount of the OPN production vs control group (20 μmol/L) | OPN production, dependence on concentration (concentration increased from 10 μmol/L to 20 μmol/L) |
| --- | --- | --- | --- | --- | --- | --- |
| O=C(CCNC(=O)c1ccc(O)cc1)Nc1cccc(Oc2ccc(Cl)c(Cl)c2)c1 [Compound 38, N-(3-(3-(3,4-dichlorophenoxy)phenylamino)-3-oxopropyl)-4-hydroxybenzamide] | significantly inhibited | significantly inhibited | inhibited depending on the concentration |  |  |  |
| COc1ccc(Oc2cccc(NC(=O)CCNC(=O)c3ccc(O)cc3)c2)cc1 [Compound 26, N-(3-(3-(4-Methoxyphenoxy)phenylamino)-3-oxopropyl)-4-hydroxybenzamide] |  |  | inhibited depending on the concentration |  |  |  |
| Nc1ccc(C(=O)NCCC(=O)c2cccc(Oc3ccc(Cl)cc3)c2N)cc1 [Compound 19, N-(3-(2-Amino-3-(4-chlorophenoxy)phenyl)-3-oxopropyl)-4-aminobenzamide] | significantly inhibited | significantly inhibited | inhibited depending on the concentration |  |  |  |
| COc1ccc(Oc2cccc(C(=O)CCNC(=O)c3ccc(O)cc3)c2N)cc1 [Compound 6, N-(3-(2-Amino-3-(4-methoxyphenoxy)phenyl)-3-oxopropyl)-4-hydroxybenzamide] |  |  |  | significantly inhibited | significantly inhibited | inhibited depending on the concentration |
